What is called MIC is the smallest concentration in the dilution series that meets the test's criterion for growth inhibition. The term ED50 denotes the dose at which the effect has come halfway, by size or by number of responders.

Consider 4 compounds from patent US4112086A, “7β-Acylamino-3-(phosphonoalkyl and esterified phosphonoalkyl substituted tetrazolylthiomethyl)cephalosporins” (SmithKline Corporation, priority 1976, dated 1978).

The subject of assay [1] is Kleb. pneumo. SK 1200. Put plainly: in vitro testing, minimum inhibitory concentration (MIC). The format is cell-based. The procedure: (§1) The compounds of Formula I have anti-bacterial activity against both Gram-positive and Gram-negative organisms. Minimum inhibitory concentrations (MIC's) range from 0.1 to >200 μg/ml in in vitro testing. Test results for the compounds 7β-D-mandelamido-3-(1-diethoxyphosphinylmethyltetrazol-5-ylthiomethyl)-3-cephem-4-carboxylic acid sodium salt hydrate (Compound A), 7β-D-mandelamido-3-(1-ethoxyhydroxyphosphinylmethyltetrazol-5-ylthiomethyl)-3-cephem-4-carboxylic acid disodium salt hydrate (Compound B) and 7β-D-mandelamido-3-(1-phosphonomethyltetrazol-5-ylthiomethyl)-3-cephem-4-carboxylic acid (Compound C) are given below. Results shown in parenthesis are those obtained for cefazolin.

For assay [2], the system named is Entero. aerog. ATCC 13048. The description is as above. The format is cell-based. The method, then:
as §1

Assay [3] deals with S. aureus SK 23390. The assay is described as above. In kind it is cell-based. The procedure:
as §1

Assay [4] relates to Pseudo. aerug. HH 63. The assay is described as above. The format is cell-based. The method, then: as §1
The test system of assay [5] is E. coli HH 33779. The assay is described as above. The format is cell-based. The method, then:
as §1

The subject of assay [6] is Proteus morgani 179. Described as above. In kind it is cell-based. Conditions: cefazolin values in parenthesis. The method, then: as §1
The subject of assay [7] is S. villaluz SK 70390. Described as above. The format is cell-based. Conditions: cefazolin values in parenthesis. The procedure: as §1
The subject of assay [8] is Proteus mirabilis 444. The assay is described as above. In kind it is cell-based. The method, then: as §1
The subject of assay [9] is Salmonella ATCC 12176. The assay is described as above. In kind it is cell-based. The method, then: as §1
Assay [10] has as its system Entero. cloacae HH 31254. The description is as above. In kind it is cell-based. Conditions: Enterobacter cloacae, HH31254. The method, then:
as §1

Assay [11] relates to Serratia marc. ATCC 13880. The assay is described as above. The format is cell-based. The method, then: as §1
The subject of assay [12] is E. coli SK 12140. Described as above. The format is cell-based. The method, then: as §1
Assay [13] relates to Kleb. pneumo. SK 4200. The assay is described as above. In kind it is cell-based. Conditions: cefazolin values in parenthesis. The procedure:
as §1

The subject of assay [14] is Strep. faecalis HH 34358. The assay is described as above. The format is cell-based. The procedure: as §1
For assay [15], the system named is S. aureus SK 127. The assay is described as above. The format is cell-based. Conditions: Staphylococcus aureus, SK127, cefazolin values in parenthesis. The procedure:
as §1

Assay [16] concerns Kleb. pneumo. 4200. Put plainly: in vivo mouse protection test. Conditions: sc. The method, then:
(§2) 4200 upon subcutaneous injection; cefazolin gave results of 4.4 mg/kg against E. coli 12140 and 7.2 mg/kg against Kleb. pneumo. 4200 upon subcutaneous administration.

Assay [17] concerns E. coli 12140. Description: in vivo mouse protection test. The procedure:
as §2

The mark [18] stands for this setting: Kleb. pneumo. SK 1200, in vitro, cefazolin values in parenthesis, read-out: MIC.
Setting [19] is: Entero. aerog. ATCC 13048, in vitro, cefazolin values in parenthesis, read-out: MIC.
Setting [20] is: Staphylococcus aureus, SK23390, S. aureus SK 23390, in vitro, cefazolin values in parenthesis, read-out: MIC.
Where [21] appears, read: Pseudo. aerug. HH 63, in vitro, cefazolin values in parenthesis, read-out: MIC.
The mark [22] stands for this setting: Escherichia coli, HH33779, E. coli HH 33779, cefazolin values in parenthesis, read-out: MIC.
The mark [23] stands for this setting: Proteus mirabilis 444, cefazolin values in parenthesis, read-out: MIC.
Setting [24] is: Entero. cloacae HH 31254, in vitro, cefazolin values in parenthesis, read-out: MIC.
The mark [25] stands for this setting: Escherichia coli, SK12140, E. coli SK 12140, in vitro, cefazolin values in parenthesis, read-out: MIC.
Where [26] appears, read: Enterococcus faecalis, HH34358, cefazolin values in parenthesis, read-out: MIC.
Where [27] appears, read: Salmonella, ATCC12176, Salmonella ATCC 12176, cefazolin values in parenthesis, read-out: MIC.
Where [28] appears, read: Serratia, ATCC13880, Serratia marc. ATCC 13880, cefazolin values in parenthesis, read-out: MIC.

In brackets after ≈: the same amount, converted by molar mass. Counter-ions that a name gives are not always drawn. Like-named read-outs stand apart in the source and are kept apart here. Some results are limits rather than exact numbers.

`CCOP(=O)(Cn1nnnc1SCC1=C(C(=O)[O-])N2C(=O)[C@@H](NC(=O)[C@H](O)c3ccccc3)[C@H]2SC1)OCC.O.[Na+]` [Compound A, 7β-D-mandelamido-3-(1-diethoxyphosphinylmethyltetrazol-5-ylthiomethyl)-3-cephem-4-carboxylic acid sodium salt hydrate]: the MIC was 3.1 mg/L in assay [1]; 12.5 mg/L in assay [2]; 0.8 mg/L in assay [3] (Staphylococcus aureus, SK23390); over 200 mg/L in [4]; 6.3 mg/L in [5] (E. coli HH 33779, cefazolin values in parenthesis, sodium salt hydrate); 12.5 mg/L in assay [5] (Escherichia coli, HH33779, E. coli HH 33779, cefazolin values in parenthesis). Further, the minimal inhibitory concentration (MIC) in assay [6] was 3.1 mg/L; in assay [6] (sodium salt hydrate), 1.6 mg/L; in [7] (read-out: MIC), 50 mg/L; in [8] (Proteus mirabilis 444, cefazolin values in parenthesis, sodium salt hydrate), 1.6 mg/L; in assay [8] (Proteus mirabilis, 444, Proteus mirabilis 444, cefazolin values in parenthesis), 3.1 mg/L; in assay [9] (Salmonella ATCC 12176, cefazolin values in parenthesis, sodium salt hydrate), 1.6 mg/L. The MIC in assay [9] (Salmonella, ATCC12176, Salmonella ATCC 12176, cefazolin values in parenthesis) worked out at 3.1 mg/L; in assay [10], 3.1 mg/L; in [11] (Serratia marc. ATCC 13880, cefazolin values in parenthesis, sodium salt hydrate), 12.5 mg/L; in assay [11] (Serratia, ATCC13880, Serratia marc. ATCC 13880, cefazolin values in parenthesis), 25 mg/L; in [12] (Escherichia coli, SK12140), 6.3 mg/L; in assay [13], 3.1 mg/L. In addition, the MIC in assay [13] (sodium salt hydrate) was found to be 1.6 mg/L; in assay [14] (Enterococcus faecalis, HH34358, cefazolin values in parenthesis), 12.5 mg/L; in [14] (cefazolin values in parenthesis, sodium salt hydrate) it was 25 mg/L.

On to `CCOP(=O)(O)Cn1nnnc1SCC1=C(C(=O)O)N2C(=O)[C@@H](NC(=O)[C@H](O)c3ccccc3)[C@H]2SC1` [Compound B, 7β-D-mandelamido-3-(1-ethoxyhydroxyphosphinylmethyltetrazol-5-ylthiomethyl)-3-cephem-4-carboxylic acid disodium salt hydrate], for which the MIC in assay [1] (setting [18]) was 0.4 mg/L; in assay [2] (setting [19]) it was 3.1 mg/L; in assay [3] (setting [20]), 1.6 mg/L; in assay [4] (setting [21]), over 200 mg/L; in assay [5] (setting [22]) it was 1.6 mg/L; in assay [7] (read-out: MIC), over 200 mg/L. Further, the minimum inhibitory concentration (MIC) in assay [8] (setting [23]) came out at 1.6 mg/L; in assay [10] (setting [24]), 0.8 mg/L; in assay [15], 6.3 mg/L; in assay [12] (E. coli SK 12140, in vitro, cefazolin values in parenthesis, disodium salt hydrate), 0.8 mg/L; in [12] (setting [25]) it was 0.4 mg/L; in assay [13] (read-out: MIC), 0.4 mg/L. The MIC in assay [14] (setting [26]) stood at 100 mg/L; in assay [14] (cefazolin values in parenthesis, disodium salt hydrate) it was 50 mg/L. Moreover, the ED50 in [16] (Mus musculus) was 0.39 mg/kg; in [17] (Escherichia coli, 12140, sc), 1.02 mg/kg.

With `O=C(O)C1=C(CSc2nnnn2CP(=O)(O)O)CS[C@@H]2[C@H](NC(=O)[C@H](O)c3ccccc3)C(=O)N12` [Compound C, 7β-D-mandelamido-3-(1-phosphonomethyltetrazol-5-ylthiomethyl)-3-cephem-4-carboxylic acid], the MIC in [1] (setting [18]) is 0.8 mg/L (≈ 1.47 µM); in assay [2] (setting [19]), 6.3 mg/L (≈ 11.6 µM); in assay [3] (setting [20]) it was 3.1 mg/L (≈ 5.71 µM); in assay [4] (setting [21]), over 200 mg/L; in [5] (setting [22]), 3.1 mg/L (≈ 5.71 µM); in assay [6] (read-out: MIC), 50 mg/L (≈ 92.2 µM). Moreover, the MIC in [7] (read-out: MIC) was over 200 mg/L; in [8] (setting [23]), 0.4 mg/L (≈ 0.737 µM); in [9] (setting [27]), 0.8 mg/L (≈ 1.47 µM); in assay [10] (setting [24]), 1.6 mg/L (≈ 2.95 µM); in [11] (setting [28]) it was 3.1 mg/L (≈ 5.71 µM); in assay [15], 6.3 mg/L (≈ 11.6 µM). Also, the figures for the MIC in assay [12] (setting [25]), in assay [13] (read-out: MIC) and in assay [14] (setting [26]) were 3.1 mg/L (≈ 5.71 µM), 1.6 mg/L (≈ 2.95 µM) and 200 mg/L (≈ 369 µM), respectively.

In the case of `Cc1nnc(SCC2=C(C(=O)O)N3C(=O)[C@@H](NC(=O)Cn4cnnn4)[C@H]3SC2)s1` [cefazolin, reference compound], the MIC in assay [1] (Kleb. pneumo. SK 1200, in vitro, cefazolin values in parenthesis) is 0.4 mg/L (≈ 0.88 µM); in assay [1] (setting [18]), 0.8 mg/L (≈ 1.76 µM); in assay [3] (S. aureus SK 23390, in vitro, cefazolin values in parenthesis), 0.2 mg/L (≈ 0.44 µM); in assay [3] (setting [20]), 0.4 mg/L (≈ 0.88 µM); in [4] (setting [21]), over 200 mg/L; in assay [5] (E. coli HH 33779, cefazolin values in parenthesis) it was 0.8 mg/L (≈ 1.76 µM). In addition, the MIC worked out at 1.6 mg/L (≈ 3.52 µM) in assay [5] (setting [22]); 100 mg/L (≈ 220 µM) in [6]; 200 mg/L (≈ 440 µM) in [6] (read-out: MIC); 100 mg/L (≈ 220 µM) in [7]; 3.1 mg/L (≈ 6.82 µM) in [8] (setting [23]); 0.4 mg/L (≈ 0.88 µM) in assay [9] (Salmonella ATCC 12176, cefazolin values in parenthesis). Moreover, the minimum inhibitory concentration (MIC) is 0.8 mg/L (≈ 1.76 µM) in assay [9] (setting [27]); 0.8 mg/L (≈ 1.76 µM) in [10] (setting [24]); 50 mg/L (≈ 110 µM) in assay [11] (ATCC13880, Serratia marc. ATCC 13880, cefazolin values in parenthesis, read-out: MIC); over 200 mg/L in assay [11] (setting [28]); 0.4 mg/L (≈ 0.88 µM) in assay [15]; 0.8 mg/L (≈ 1.76 µM) in assay [12] (setting [25]). Also, the MIC in assay [13] (read-out: MIC) was 1.6 mg/L (≈ 3.52 µM); in assay [14] (setting [26]), 6.3 mg/L (≈ 13.9 µM). Also, the ED50 is 7.2 mg/kg in assay [16] (mouse protection, Kleb. pneumo. 4200, subcutaneous, read-out: ED50) and 4.4 mg/kg in assay [17] (Escherichia coli, sc, mouse protection, E. coli 12140, subcutaneous, read-out: ED50).
